Results as given in article PMC6530361, “Anti-tumor Efficacy Assessment of the Sigma Receptor Pan Modulator RC-106. A Promising Therapeutic Tool for Pancreatic Cancer” (Frontiers in Pharmacology, 2019).
Read-outs that look alike come from different tables or passages of the source.

Key:
[1] = system: Panc-1, Capan-1, and Capan-2; assay: Real-Time qRT-PCR of ER stress/UPR marker genes, all cell lines; format: cell-based; conditions: exposure to 50 μM; 6, 12, and 24 h
Method: Total cellular RNA was extracted using TRIzol reagent (Life technologies) in accordance with manufacturer’s instruction and quantified using the Nanodrop MD-1000 spectrophotometer system. Reverse transcription reactions were performed in 20 μL of nuclease free water containing 400 ng of total RNA using iScript cDNA Synthesis kit (Bio-Rad Laboratories, Hercules, CA). Real-Time PCR was run using 7500 Fast Real-Time PCR system (Applied Biosystems) and TaqMan assays to detect the expression of SIGMAR1, TMEM97, GRP78/BiP, ATF4, and CHOP genes.
Reactions were carried out in triplicate at a final volume of 20 μL containing 40 ng of cDNA template, TaqMan universal PCR Master Mix (2X), and selected TaqMan assays (20X). Samples were maintained at 50°C for 2 min, then at 95°C for 10 min followed by 40 amplification cycles at 95°C for 15 s, and at 60°C for 30 s.
The amount of mRNA was normalized to the endogenous genes GAPDH and HPRT-1.

[2] = system: proteasome activity of PANC-1, Capan-1, and Capan-2; assay: Proteasome activity assay, all cell lines; format: cell-based; conditions: 20–100 μM, 24 h, all PC cell lines
Method: Cells were seeded in 6-well plates at density of 250 × 10^3 cells/well. Cells were treated with increasing concentration of RC-106 and after 24 h total protein extracts were obtained: cells were washed 2 times with PBS and lysed with 100 μL of lysis buffer (Hepes 5 mM pH 7.5, NaCl 150 mM, Glycerol 10%, Triton X100 1%, MgCl2 1.5 mM, EGTA 5 mM). Protein concentration of samples was quantified using Bradford method. Proteasome activity was quantified as described below. Proteasome solution was composed by 40 μg of proteins, 10 μL of 10X proteasome buffer (Hepes pH 7.5 250 mM, EDTA pH 8.0 5 mM, NP-40 0.5%, SDS 0.01%) and 10 μL of 10 mM proteasome substrate (N-Succinyl-Leu-Leu-Val-Tyr-7-Amido-4-Methylcoumarin, 7.6 mg/mL; Sigma-Aldrich, United States). 100 μL of proteasome solution was loaded in wells of a black 96-well plate. The plate was then incubated at 37°C for 2 h and the fluorescence was measured in a microplate reader (excitation 380 nm, emission 460 nm; BMG-Labtech, Germany).

[3] = system: Panc-1, Capan-1, and Capan-2; assay: MTS assay, all cell lines tested; format: cell-based; conditions: 24, 48, and 72 h exposure
Method: (§1) Pancreatic adenocarcinoma Panc-1, Capan-1, and Capan-2, cell lines were purchased by the ATCC. All cell lines were grown in culture medium composed of DMEM/Ham’s F12 (1:1; Euroclone) supplemented with fetal calf serum (10%; Euroclone), glutamine (2 mM; Euroclone), and insulin (10 μg/mL; Sigma-Aldrich, St. Louis, MO, United States). All experiments were performed on cells in the exponential growth phase and checked periodically for mycoplasma contamination by MycoAlert^TM Mycoplasma Detection Kit (Lonza, Basel, Switzerland).
(§2) Cytotoxicity was assayed using CellTiter 96® AQueous One Solution Cell Proliferation Assay (Promega, Milan, Italy). Cells were seeded onto a 96-well plate at a density of 3 × 10^3 cells per well. Cell lines were exposed to increasing concentrations of the drug, ranging from 0.1 to 100 μM. The effect of the drug was evaluated after 24, 48, and 72 h of continued exposure. Two independent experiments were performed in octuplicate. The OD of treated and untreated cells was determined at a wavelength of 490 nm using a […].
(§3) Dose response curves were created by Excel software. IC50 values were determined graphically from the plot.

Panc-1 spheroids = assay: CellTiter-Glo 3D cell viability assay; format: cell-based; conditions: Homo sapiens, PANC-1, 48 h, 3D spheroids, diameter up to 600 μm, 12.5–50 μM
Method: Spheroids were obtained as previously described ([Zanoni et al., 2016]). Briefly, a rotatory cell culture system RCCS (Synthecon Inc., Houston, TX, United States) was used. The rotary systems were placed inside a humidified 37°C, 5% CO2 incubator and all procedures were performed in sterile conditions. Single cell suspensions of about 1 × 10^6 cells/ml of Panc-1 were placed in the 50 mL rotating chamber at an initial speed of 12 rpm. Speed was increased as cells formed aggregates to avoid sedimentation. The culture medium was changed every 4 days and tumor spheroids with an equivalent diameter ranging from about 500–1300 μm were obtained in around 15 days. After formation, spheroids were transferred into a 96-well low-attachment culture plates (Corning Inc., Corning, NY, United States; one spheroid/well), containing 100 μL of fresh culture medium per well.
Cell viability of Panc-1 spheroids was measured using a 3D cell viability assay (Promega, Milan, Italy). Briefly, homogeneous spheroids were removed from the 96-well low-attachment culture plate and placed separately in single wells of a 96-well opaque culture plate (BD Falcon). CellTiter-Glo® 3D reagent was added to each well and the luminescence signal was read after 30 min with the GloMax® bioluminescent reader (Promega).
The analysis of morphological parameters were performed as previously described ([Piccinini et al., 2017]). […]

Capan-1 = assay: MTS assay (cell viability, 2D); format: cell-based; conditions: Homo sapiens
Method: as §1, §2, §3

Panc-1 = assay: MTS assay (cell viability, 2D); format: cell-based; conditions: Homo sapiens
Method: as §1, §2, §3

Capan-2 = assay: MTS assay (cell viability, 2D); format: cell-based; conditions: Homo sapiens
Method: as §1, §2, §3

IC50 [3]: 33 to 57 µM
melting point: 221 to 222 °C
IC50 (Panc-1 spheroids): 39.6 µM
IC50 (Panc-1; PANC-1, 24 h exposure, read-out: IC50 values 24h): 55.3 ± 0.7 µM
IC50 (Panc-1; PANC-1, 48 h exposure, read-out: IC50 values 48h): 51.7 ± 1.38 µM
IC50 (Panc-1; PANC-1, 72 h exposure, read-out: IC50 values 72h): 52.1 ± 0.47 µM
SMILES: C/C(=C\CN1CCC(Cc2ccccc2)CC1)c1ccc2ccccc2c1 [RC-106, (E)-4-benzyl-1-(3-(naphthalen-2-yl)but-2-en-1-yl)piperidine]
mRNA expression of ER markers GRP78/BiP, ATF4, and CHOP [1]: highly increased
proteasome activity [2]: reduce proteasome activity in a dose dependent manner
IC50 (Capan-1; CAPAN-1, 24 h exposure, read-out: IC50 values 24h): 56.8 ± 0.98 µM
IC50 (Capan-1; CAPAN-1, 48 h exposure, read-out: IC50 values 48h): 50.3 ± 3.04 µM
IC50 (Capan-1; CAPAN-1, 72 h exposure, read-out: IC50 values 72h): 32.8 ± 3.43 µM
IC50 (Capan-2; CAPAN-2, 24 h exposure, read-out: IC50 values 24h): 52.6 ± 0.07 µM
IC50 (Capan-2; CAPAN-2, 48 h exposure, read-out: IC50 values 48h): 54.2 ± 2.18 µM
IC50 (Capan-2; CAPAN-2, 72 h exposure, read-out: IC50 values 72h): 53.3 ± 1.62 µM
